Results from patent US7417156B2, “Orally active, antimalarial, anticancer, artemisinin-derived trioxane dimers” (Johns Hopkins University, priority 2002, dated 2008).
Where two headings read alike, the source gives them in different places.

What was measured:
HOP-92 = assay: NCI 60 cell line panel screen (SRB); format: cell-based, human; details: for Log10LC50 / Log10TGI50: HOP-92 (Non-Small Cell Lung Cancer); for Log10LC50: LC50: PG=−50; for Log10TGI50: TGI: PG=0; for Log10GI50: Non-Small Cell Lung Cancer, HOP-92
OVCAR-3 = assay: NCI 60 cell line panel screen (SRB); format: cell-based, human; details: for Log10LC50 / Log10TGI50: OVCAR-3 (Ovarian Cancer); for Log10LC50: LC50: PG=−50; for Log10TGI50: TGI: PG=0; for Log10GI50: Ovarian Cancer, OVCAR-3
NCI-H460 = assay: NCI 60 cell line panel screen (SRB); format: cell-based, human; details: for Log10LC50 / Log10TGI50: NCI-H460 (Non-Small Cell Lung Cancer); for Log10LC50: LC50: PG=−50; for Log10TGI50: TGI: PG=0; for Log10GI50: Non-Small Cell Lung Cancer, NCI-H460
ACHN = assay: NCI 60 cell line panel screen (SRB); format: cell-based, human
[1] = system: chloroquine-sensitive P. falciparum (NF54); assay: Antimalarial activity in vitro, [3H]hypoxanthine incorporation; format: cell-based
MCF7 = assay: NCI 60 cell line panel screen (SRB); format: cell-based, human; details: for Log10GI50: Breast Cancer, MCF7; for Log10LC50 / Log10TGI50: MCF7 (Breast Cancer); for Log10LC50: LC50: PG=−50; for Log10TGI50: TGI: PG=0
KM12 = assay: NCI 60 cell line panel screen (SRB); format: cell-based, human; details: for Log10GI50: Colon Cancer, KM12; for Log10LC50 / Log10TGI50: KM12 (Colon Cancer); for Log10LC50: LC50: PG=−50; for Log10TGI50: TGI: PG=0
A549/ATCC = assay: NCI 60 cell line panel screen (SRB); format: cell-based, human; details: for Log10LC50 / Log10TGI50: A549/ATCC (Non-Small Cell Lung Cancer); for Log10LC50: LC50: PG=−50; for Log10TGI50: TGI: PG=0; for Log10GI50: Non-Small Cell Lung Cancer, A549/ATCC
60 cell line panel = format: cell-based; details: for Log10LC50 Delta / Log10LC50 Range / Log10TGI50 Delta / Log10TGI50 Range: 60 cell line panel; for Log10GI50 MG MID: mean over panel; for Log10LC50 MG MID / Log10TGI50 MG MID: mean value over the 60 cell line panel
UACC-257 = assay: NCI 60 cell line panel screen (SRB); format: cell-based, human; details: for Log10LC50 / Log10TGI50: UACC-257 (Melanoma); for Log10LC50: LC50: PG=−50; for Log10TGI50: TGI: PG=0
HCT-15 = assay: NCI 60 cell line panel screen (SRB); format: cell-based, human; details: for Log10GI50: Colon Cancer, HCT-15; for Log10LC50 / Log10TGI50: HCT-15 (Colon Cancer); for Log10LC50: LC50: PG=−50; for Log10TGI50: TGI: PG=0
PC-3 = assay: NCI 60 cell line panel screen (SRB); format: cell-based, human; details: for Log10LC50 / Log10TGI50: PC-3 (Prostate Cancer); for Log10LC50: LC50: PG=−50; for Log10TGI50: TGI: PG=0; for Log10GI50: Prostate Cancer, PC-3
CCRF-CEM = assay: NCI 60 cell line panel screen (SRB); format: cell-based, human; details: for Log10LC50 / Log10TGI50: CCRF-CEM (Leukemia); for Log10LC50: LC50: PG=−50; for Log10TGI50: TGI: PG=0
HS 578T = assay: NCI 60 cell line panel screen (SRB); format: cell-based, human; details: for Log10GI50: Breast Cancer, HS 578T; for Log10LC50 / Log10TGI50: HS 578T (Breast Cancer); for Log10LC50: LC50: PG=−50; for Log10TGI50: TGI: PG=0
HL-60(TB) = assay: NCI 60 cell line panel screen (SRB); format: cell-based, human
MOLT-4 = MOLT-4 (Leukemia)
Method: Growth Inhibition. […] The screening assay is performed on 96-well microtitre plates. Relatively high initial inoculation densities are used, in order to permit measurement of “time-zero” values and to enhance the screen's ability to detect and provide some differentiation between growth inhibition and cytotoxic response parameters. […] The inoculated microtitre plates are pre-incubated for 24 hours at 37° C. prior to drug additions. The five drug dilutions tested routinely range from 10^−4 to 10^−8 molar. Higher or lower concentration ranges may be selected on a non-routine basis if appropriate solubility and/or prior biological information or other screening data so dictate. Duplicate wells are prepared for all concentrations, (concentration is often denoted by placing brackets around a number); “time-zero” and “no drug” controls are also provided for each test. The minimum amount of compound required for a one-time evaluation in the routine screen can be calculated from the knowledge that each test requires a total of approximately 40 ml (0.04 liter) of cell culture medium containing the highest desired drug concentration. […] After a 48 hour incubation (37° C.) with the test compound, the cells are fixed in situ to the bottoms of the microtitre wells by addition of 50 μl of either 50% trichloroacetic acid (for adherent cell lines) or 80% trichloroacetic acid (for settled cell suspension lines), followed by incubation for 60 minutes at 4° C. The cellular protein in each well is assayed using a sulforhodamine B (SRB) stain procedure. Briefly, after discarding the supernatants, the microtitre plates are washed 5 times with deionized water and air-dried. […] Unbound SRB is removed by washing 5 times with 1% acetic acid. […] SRB is a bright pink anionic dye which, in dilute acetic acid, binds electrostatically to the basic amino acids of TCA-fixed cells. Cryopreserved master stocks of all the lines are maintained, and cultures used for screening are replaced from the master stock after no more than twenty passages in the screening laboratory. The cell line panel consists of 60 lines, organized into nine, disease-related subpanels including leukemia, non-small-cell lung cancer, colon, CNS, melanoma, ovarian, renal, prostate and breast cancers.
At this value the increase from time tzero, in the number or mass of cells in the test well is only 50% as much as the corresponding increase in the control well during this period of the experiment, see Table III. A drug effect of this intensity is interpreted as primary growth inhibition.
At this value the number or mass of cells in the well at the end of the experiment equals the number or mass of cells in the well at time tzero, see Table IV. A drug effect of this intensity is regarded as cytostasis.
At this value, the number or mass of cells in the test well at the end of the experiment is half that at time tzero, see Table V. This is interpreted as cytotoxicity.
Dose response curves, shown in the above mentioned Figures, are obtained by exposing various cancer cell lines to compounds having a known concentration ([log10M]), as discussed in detail above, and then plotting the percentage growth of each cell line for each concentration. […] Percentage growth is determined by dividing the number or mass of cells in the test well by the number or mass of cells in a control well. […] As discussed previously, the five drug dilutions routinely tested range from 10^−4 to […].

K-562 = assay: NCI 60 cell line panel screen (SRB); format: cell-based, human
[2] = Table I, NF54 strain, read-out: IC50

Compound: CC1CCC2C(C)C(CC(COC(=O)c3cc[n+]([O-])cc3)CC3OC4OC5(C)CCC6C(C)CCC(C3C)C46OO5)OC3OC4(C)CCC1C32OO4 (stereo not shown) [Compound 13, bis-trioxane primary alcohol isonicotinate N-oxide]
- Log10LC50 (HOP-92): −4.74 log10M
- Log10TGI50 (HOP-92): −5.27 log10M
- Log10GI50 (HOP-92): −8.04
- Log10LC50 (OVCAR-3): −4.51 log10M
- Log10TGI50 (OVCAR-3): −4.98 log10M
- Log10GI50 (OVCAR-3): −7.75
- Log10LC50 (NCI-H460): −4.36 log10M
- Log10TGI50 (NCI-H460): −4.92 log10M
- Log10GI50 (NCI-H460): <−8.30
- Log10LC50 (ACHN; ACHN (Renal Cancer), LC50: PG=−50): −4.79 log10M
- Log10TGI50 (ACHN; ACHN (Renal Cancer), TGI: PG=0): −6.57 log10M
- Log10GI50 (ACHN; Renal Cancer, ACHN): <−8.30
- IC50 [1]: sub-nanomolar
- IC50 [1, 2]: 0.53 nM
- Log10GI50 (MCF7): <−8.30
- Log10LC50 (MCF7): −4.44 log10M
- Log10TGI50 (MCF7): −5.03 log10M
- Log10GI50 (KM12): <−8.30
- Log10LC50 (KM12): −4.37 log10M
- Log10TGI50 (KM12): −5.04 log10M
- Log10LC50 (A549/ATCC): >−4.30 log10M
- Log10TGI50 (A549/ATCC): −4.61 log10M
- Log10GI50 (A549/ATCC): −5.98
- Log10GI50 Delta (60 cell line panel): 0.92
- Log10GI50 Range (60 cell line panel): 3.22
- Log10LC50 Delta (60 cell line panel): 1.27
- Log10LC50 Range (60 cell line panel): 1.49
- Log10TGI50 Delta (60 cell line panel): 3.15
- Log10TGI50 Range (60 cell line panel): 4.00
- Log10GI50 MG MID (60 cell line panel): −7.38
- Log10LC50 MG MID (60 cell line panel): −4.51 log10M
- Log10TGI50 MG MID (60 cell line panel): −5.15 log10M
- Log10GI50 (UACC-257; Melanoma, UACC-257): −5.15
- Log10LC50 (UACC-257): >−4.30 log10M
- Log10TGI50 (UACC-257): −4.65 log10M
- Log10GI50 (HCT-15): <−8.30
- Log10LC50 (HCT-15): −4.81 log10M
- Log10TGI50 (HCT-15): −8.19 log10M
- Log10LC50 (PC-3): −4.63 log10M
- Log10TGI50 (PC-3): −5.11 log10M
- Log10GI50 (PC-3): <−8.30
- Log10LC50 (CCRF-CEM): >−4.30 log10M
- Log10TGI50 (CCRF-CEM): >−4.30 log10M
- Log10GI50 (HS 578T): <−8.30
- Log10LC50 (HS 578T): −4.35 log10M
- Log10TGI50 (HS 578T): −5.00 log10M

Compound: CC1CCC2C(C)C(CC(O)(CC3OC4OC5(C)CCC6C(C)CCC(C3C)C46OO5)CS(=O)(=O)c3ccc(C(=O)O)cc3)OC3OC4(C)CCC1C32OO4 (stereo not drawn) [Compound 10c, bis-trioxane β-hydroxysulfone benzoic acid]
- Log10LC50 (HOP-92): −4.52 log10M
- Log10TGI50 (HOP-92): −5.05 log10M
- Log10GI50 (HOP-92): <−8.30
- Log10LC50 (OVCAR-3): −5.01 log10M
- Log10TGI50 (OVCAR-3): <−8.30 log10M
- Log10GI50 (OVCAR-3): <−8.30
- Log10LC50 (HL-60(TB); HL-60(TB) (Leukemia), LC50: PG=−50): >−4.30 log10M
- Log10TGI50 (HL-60(TB); HL-60(TB) (Leukemia), TGI: PG=0): <−8.30 log10M
- Log10GI50 (HL-60(TB); Leukemia, HL-60(TB)): <−8.30
- Log10LC50 (NCI-H460): −4.62 log10M
- Log10TGI50 (NCI-H460): −5.11 log10M
- Log10GI50 (NCI-H460): <−8.30
- IC50 [1, 2]: 2.4 nM
- Log10GI50 (MCF7): <−8.30
- Log10LC50 (MCF7): >−4.30 log10M
- Log10TGI50 (MCF7): −5.13 log10M
- Log10GI50 (KM12): <−8.30
- Log10LC50 (KM12): −5.23 log10M
- Log10TGI50 (KM12): <−8.30 log10M
- Log10LC50 (A549/ATCC): >−4.30 log10M
- Log10TGI50 (A549/ATCC): >−4.30 log10M
- Log10GI50 (A549/ATCC): −5.28
- Log10GI50 Delta (60 cell line panel): −0.73
- Log10GI50 Range (60 cell line panel): 3.48
- Log10LC50 Delta (60 cell line panel): 1.00
- Log10LC50 Range (60 cell line panel): 1.25
- Log10TGI50 Delta (60 cell line panel): 2.79
- Log10TGI50 Range (60 cell line panel): 4.00
- growth inhibition in words (60 cell line panel; colon cancer KM12, ovarian cancer OVCAR 3, breast cancer MDA-MB-435): selectively and strong inhibitory
- Log10GI50 MG MID (60 cell line panel): −7.57
- Log10LC50 MG MID (60 cell line panel): −4.55 log10M
- Log10TGI50 MG MID (60 cell line panel): −5.51 log10M
- Log10LC50 (UACC-257): >−4.30 log10M
- Log10TGI50 (UACC-257): −4.38 log10M
- Log10GI50 (HCT-15): <−8.30
- Log10LC50 (HCT-15): −4.70 log10M
- Log10TGI50 (HCT-15): −5.23 log10M
- Log10LC50 (MOLT-4; LC50: PG=−50): >−4.30 log10M
- Log10TGI50 (MOLT-4; TGI: PG=0): >−4.30 log10M
- Log10LC50 (PC-3): −4.62 log10M
- Log10TGI50 (PC-3): −5.23 log10M
- Log10GI50 (PC-3): <−8.30
- Log10LC50 (CCRF-CEM): >−4.30 log10M
- Log10TGI50 (CCRF-CEM): −4.84 log10M
- Log10GI50 (CCRF-CEM; Leukemia, CCRF-CEM): <−8.30
- Log10LC50 (K-562; K-562 (Leukemia), LC50: PG=−50): >−4.30 log10M
- Log10TGI50 (K-562; K-562 (Leukemia), TGI: PG=0): −4.75 log10M
- Log10GI50 (K-562; Leukemia, K-562): <−8.30
- Log10GI50 (HS 578T): −4.82
- Log10LC50 (HS 578T): >−4.30 log10M
- Log10TGI50 (HS 578T): −4.53 log10M
